The text below walks through data of patent US12624022B2, “Heterocyclic immunomodulators as PDL1 checkpoint inhibitor” (Janssen Sciences Ireland Unlimited Company, priority 2019, dated 2026).

Usually IC50 stands for the midpoint of a concentration-inhibition curve.

One assay addresses PD-1/PD-L1 (Homo sapiens, UniProt Q9NZQ7). Kind of assay: PD-1/PD-L1 biochemical protein-protein interaction assay (ALPHA). It is filed as binding. The following applies: Table 1a; 5 nM His tagged PD-L1, 5 nM biotinylated PD-1, 2 hours at 25° C.; read-out: ALPHA-LISA IC50. The procedure: Compounds were tested in protein-protein interaction assay to determine if they can specifically block the interaction between the extracellular domains of PD-1/PD-L1. Binding of the protein pairs is measured using a bead based amplified luminescent proximity homogeneous assay (ALPHA) platform. Binding of each protein pair results in proximity of the donor and acceptor beads which leads to an increase in ALPHA signal. Assays are performed in 50 mM Tris (pH 7.4), 0.0015% Triton X-100, 0.1% BSA. Final protein concentration in the assays were 5 nM (His tagged PD-L1), 5 nM (biotinylated PD-1), 10 μg/ml ALPHA assay acceptor beads, 10 μg/ml ALPHA assay donor beads. After an assay reaction time of 2 hours at 25° C., binding was measured. The specificity of the binding was determined by testing the compounds in an assay with an irrelevant protein that is both His tagged and biotinylated. The final protein concentration used in the assay was 5 nM, 10 μg/ml ALPHA assay acceptor beads, 10 μg/ml ALPHA assay donor beads. After an assay reaction time of 2 hours at 25° C., binding was measured. IC50 values were calculated from the fit of the dose-response curves to a four-parameter equation.

The conditions of assay [1]: across the 27 clinical trials analyzed (Tie Y et al., 2016); cited from earlier work.

Sequence of PD-1/PD-L1 (Q9NZQ7 19-238 limits assumed): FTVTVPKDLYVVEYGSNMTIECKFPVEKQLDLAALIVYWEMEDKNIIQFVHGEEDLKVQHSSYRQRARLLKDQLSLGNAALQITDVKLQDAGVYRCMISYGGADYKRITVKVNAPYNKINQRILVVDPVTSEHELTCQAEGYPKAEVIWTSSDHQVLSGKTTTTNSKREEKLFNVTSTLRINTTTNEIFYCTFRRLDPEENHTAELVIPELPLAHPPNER

Consider `N#Cc1cccc(COc2cc(OCc3cccn(-c4ccc5c(c4)OCCO5)c3=O)c(Cl)cc2CN[C@H](CO)C(=O)O)c1` [Compound 202, (5-chloro-2-((3-cyanobenzyl)oxy)-4-((1-(2,3-dihydrobenzo[b][1,4]dioxin-6-yl)-2-oxo-1,2-dihydropyridin-3-yl)methoxy)benzyl)-D-serine], for which the IC50 at PD-1/PD-L1 turned out to be 200 nM.
Regarding “Opdivo: Opdivo® (Nivolumab), given as example of PD-L1/PD-1 antagonist therapy validated in clinical trials”, the “objective response rate (ORR)” value in assay [1] was 26%.
